Columns and labels:
human cathepsin S (CatS) = molecular target: T1, human cathepsin S (CatS) (Homo sapiens, UniProt P25774); test: Fluorometric inhibition assay, cathepsin S; type: biochemical; conditions: for kinact: read-out: kinact, CatS
T1 construct: purchased Sigma Aldrich

rhodesain = rhodesain (Trypanosoma brucei rhodesiense, UniProt Q95PM0); test: Fluorometric inhibition assay, rhodesain; type: biochemical; conditions: for kinact: read-out: kinact, Rhodesain
Chain of rhodesain (Q95PM0 entry or part of it): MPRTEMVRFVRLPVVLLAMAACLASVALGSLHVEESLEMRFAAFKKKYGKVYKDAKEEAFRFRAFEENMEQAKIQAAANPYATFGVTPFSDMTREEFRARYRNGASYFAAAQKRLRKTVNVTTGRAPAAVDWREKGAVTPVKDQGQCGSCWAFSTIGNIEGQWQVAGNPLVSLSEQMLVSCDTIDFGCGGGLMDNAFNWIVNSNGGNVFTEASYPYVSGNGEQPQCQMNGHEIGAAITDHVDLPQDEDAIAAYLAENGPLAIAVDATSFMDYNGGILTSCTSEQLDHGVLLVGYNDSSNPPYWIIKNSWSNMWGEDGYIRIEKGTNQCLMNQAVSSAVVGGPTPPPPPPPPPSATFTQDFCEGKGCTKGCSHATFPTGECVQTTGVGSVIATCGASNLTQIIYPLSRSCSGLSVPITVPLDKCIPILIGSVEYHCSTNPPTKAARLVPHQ

T1 sequence (P25774 115-331): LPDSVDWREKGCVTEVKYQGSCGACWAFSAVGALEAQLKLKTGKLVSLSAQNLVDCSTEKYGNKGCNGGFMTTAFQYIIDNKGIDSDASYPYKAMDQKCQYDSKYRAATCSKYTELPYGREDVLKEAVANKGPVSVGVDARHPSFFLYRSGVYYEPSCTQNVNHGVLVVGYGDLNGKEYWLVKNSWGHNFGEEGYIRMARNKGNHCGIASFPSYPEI

SMILES	Ki (human cathepsin S (CatS); Ki, CatS)	Ki (rhodesain; Ki, Rhodesain)	Ki (human cathepsin S (CatS); pKi, Cathepsin S inhibition)	kinact (human cathepsin S (CatS))	Ki (rhodesain; pKi, Rhodesain inhibition)	kinact (rhodesain)	activity against rhodesain, in words (rhodesain)
O=C(N[C@@H](Cc1ccccc1)C(=O)N[C@H](/C=C/[N+](=O)[O-])CCc1ccccc1)OCc1ccccc1 [compound 13]	201 ± 93 nM	0.06 ± 0.006 nM					
O=C(N[C@@H](Cc1ccccc1)C(=O)N[C@H](/C=C/S(=O)(=O)c1ccccc1)CCc1ccccc1)OCc1ccccc1 [compound 16]		20 ± 2 nM	1 nM	0.0037 ± 0.0006 s⁻¹	20 nM	0.005 ± 0.0001 s⁻¹	
O=C(N[C@@H](Cc1ccccc1)C(=O)N[C@H](/C=C(\F)S(=O)(=O)c1ccccc1)CCc1ccccc1)OCc1ccccc1 [compound 17]	966 ± 104 nM	3570 ± 437 nM	1000 nM				
O=C(N[C@@H](Cc1ccccc1)C(=O)N[C@@H](CCc1ccccc1)C(=O)c1nc2ccccc2s1)OCc1ccccc1 [compound 18]							inactive at 20 µM
CCOC(=O)/C=C/C(=O)[C@H](CCc1ccccc1)NC(=O)[C@H](Cc1ccccc1)NC(=O)OCc1ccccc1 [compound 22]	18 ± 3 nM	79 ± 7 nM		0.0022 ± 0.0001 s⁻¹		0.008 ± 0.001 s⁻¹	
O=C(N[C@@H](Cc1ccccc1)C(=O)N[C@@H](CCc1ccccc1)C(=O)N[C@H]1CN(c2ccccc2)C1=O)OCc1ccccc1 [compound 24]							inactive at 20 µM
N#C[C@H](CCc1ccccc1)NC(=O)[C@H](Cc1ccccc1)NC(=O)OCc1ccccc1 [compound 25]	136 ± 12 nM	88 ± 17.4 nM					
N#CC(COCc1ccccc1)NC(=O)C(CC1CCCCC1)NC(=O)N1CCOCC1 (stereo not drawn) [compound 30]		21 ± 2 nM					
O=C(NC(C=CS(=O)(=O)c1ccccc1)COCc1ccccc1)C(CC1CCCCC1)NC(=O)N1CCOCC1 (stereo not drawn) [compound 35]		22 ± 2 nM	3.16 nM	0.0202 ± 0.0006 s⁻¹		0.006 ± 0.0004 s⁻¹	
O=C(NC(C=C(F)S(=O)(=O)c1ccccc1)COCc1ccccc1)C(CC1CCCCC1)NC(=O)N1CCOCC1 (stereo not drawn) [compound 36]	3210 ± 612 nM						
CCOC(=O)C=CC(=O)C(COCc1ccccc1)NC(=O)C(CC1CCCCC1)NC(=O)N1CCOCC1 (stereo not drawn) [compound 40]	22 ± 4 nM	35 ± 9 nM		0.0023 ± 7e-05 s⁻¹		0.003 ± 0.0001 s⁻¹	
O=C(NC(COCc1ccccc1)C(=O)c1nc2ccccc2s1)C(CC1CCCCC1)NC(=O)N1CCOCC1 (stereo not drawn) [compound 42]	233 ± 24 nM	324 ± 89 nM	316 nM				submicromolar affinity
O=C(NC1CN(c2ccccc2)C1=O)C(COCc1ccccc1)NC(=O)C(CC1CCCCC1)NC(=O)N1CCOCC1 (stereo not drawn) [compound 45]	860 ± 130 nM			0.00046 ± 2e-05 s⁻¹			
O=C(NC(C=C[N+](=O)[O-])COCc1ccccc1)C(CC1CCCCC1)NC(=O)N1CCOCC1 (stereo not drawn) [compound 49]	12 ± 1 nM				2 nM		

— paper PMC10138721, “Investigation of the Compatibility between Warheads and Peptidomimetic Sequences of Protease Inhibitors—A Comprehensive Reactivity and Selectivity Study” (International Journal of Molecular Sciences, 2023)
